Data: patent publication EP0499337A1, “Use of tetra:hydro-thieno-pyrido-indole derivatives for the treatment of skin disorders” (YAMANOUCHI EUROPE B.V., priority 1991, dated 1992)
Where two headings read alike, the source gives them in different places.

Legend:
[1] = tested on: human polymorphonuclear leukocytes (PMNL); assay: ROS generation from PMNL, lucigenin-amplified chemiluminescence; type: cell-based; conditions: Homo sapiens, PMNL, IC₅₀-values
Protocol: Human PMNL were isolated from fresh blood (anticoagulated with sodium citrate) by erythrocyte sedimentation with 1% dextran (Pharmacia, Uppsala, Sweden) centrifugation of the resulting supernatant, followed by hypoosmotic lysis to remove red blood cells. Washed cells were adjusted to 2 x 10⁶ cells/ml in PBS containing fetal calf serum (2%; v/v). Test compounds dissolved in DMSO were diluted with the assay buffer to a final DMSO concentration of 0.5% (v/v).
Then the test compounds (100 µl) were added with subsequent recording for another 16 min period. […] Results were expressed as percent of inhibition or stimulation of the controls (mean of two integrals) in a single experiment.

[2] = tested on: HaCaT cells; assay: Cytotoxicity, LDH release into the culture medium; conditions: 48 h after onset of drug exposure
Protocol: HaCaT cells were grown as described.
Cytotoxicity was assessed by measurements of the content of intracellular lactate dehydrogenase (LDH) activity released into the culture medium during 48 h after onset of drug exposure. Possible drug induced detachment of the HaCaT cells from the plate was assessed by collection of the medium from the wells and centrifugation (80 x g, 10 min.) The resulting pellet was suspended in 10 µl medium and cells were counted in a haemocytometer.

[3] = tested on: PMHL; assay: Nonspecific cytotoxicity, trypane blue exclusion test; type: cell-based, human
Protocol: Nonspecific cytotoxicity of the test compounds on PMHL was assessed by […] blue exclusion test.

[4] = tested on: TPA-induced ear edema in mice; assay: Intraperitoneal administration, TPA-induced ear edema in mice; type: in vivo; conditions: intraperitoneally, 30, 10 or 3.3 mg/kg
Protocol: Mice were injected intraperitoneally with 30, 10 or 3.3 mg/kg body weight of the test substances, sphingosine in carboxymethylcellulose (0.5%) and tiflucarbine in physiologic Saline, 10 ml/kg body weight. After 60 minutes the mire were challenged on the left ear with a 0.01 wt% solution of 12-O-tetradecanoylphorbol-13-acetate (TPA) in a 80/20 mixture of acetone/water. At 0, 3, 6 and 24 h after challenge, ear thickness was determined.

[5] = tested on: Normal human keratinocytes; assay: Cornified envelope formation (keratinocyte differentiation); type: cell-based; conditions: 4 h plus 48 h exposure, increasing concentrations
Protocol: Normal human keratinocytes were grown to confluence at low calcium concentration in the presence of 5% FCS, 1 µM isoproterenol and 10 ng EGF per ml. They were first exposed for 4 h to increasing concentrations of test compounds and subsequently reincubated for 48 h in medium containing normal calcium concentration and the same additives, test compounds and [³H]-leucine (1 µCi/ml). Thereafter, both spontaneous and ionophore-induced cornified envelope (CE) formation was determined [King et al. (1986) Exp. Cell. Res., 167: 252].

[6] = tested on: HaCaT cells; assay: Keratinocyte morphology, phase contrast microscopy; type: cell-based, human; conditions: 30 nM, monitored during 72 hours
Protocol: HaCaT cells were cultured under standard conditions. 24 h after plating (2.5 x 10⁶ cells) the medium was replaced by medium containing the test compounds. During 72 hours cell morphology was frequently monitored using a phase contrast photomicroscope (Olympus IMT-2, Tokyo, Japan).

[7] = tested on: rat brain synaptosomes; assay: Noradrenaline release from permeated synaptosomes; type: cell-based; conditions: 100 µM
Protocol: Highly purified synaptosomes were prepared according to Dunkley and Robinson (1987). The synaptosomes were diluted with 3 ml buffer A (123 mM NaCl, 5 mM KCl, 2 mM CaCl₂, […], 1.15 mM NaH₂PO₄, 5.6 mM glucose, 20 mM PIPES pH 6.8, gassed with O₂:CO₂, 95:5) and incubated for 15 min at 37°C. Then 2.5 µCi noradrenalin (NA) was added, incubation was continued for 15 min and the synaptosomes were centrifuged for 20 min at 600 x g. The resulting pellet was washed twice in buffer A without CaCl₂ and resuspended (1 mg protein/ml).
For measurement of NA release, prelabeled synaptosomes were incubated at 37°C in buffer A containing Na₂ATP and EGTA-buffered Ca²⁺ in concentrations as indicated (final volume 120 µl). The release reaction was started by adding synaptosomes (20 µg protein) to the reaction mixture and terminated after 5 min by 30 sec centrifugation at 10,000 x g. The supernatant (90 µl) was collected and counted in a Packard Model 2,000 CA liquid scintillation counter with Picofluor as a scintillation cocktail. NA release was expressed as % of total [³H]-NA incorporated. Total NA incorporation was determined by measuring [³H]-incorporation in 20 µg prelabeled washed synaptosomes.

[8] = tested on: 50 kDa protein; assay: Phosphorylation of synaptosomal plasma membranes: CaM-dependent phosphorylation of the 50 kDa protein; type: biochemical; conditions: in the presence of added CaM
Protocol: Subcellular fractionation and phosphorylation assay were performed according to Kristjansson et al., (1982). […] After a preincubation at 30°C for 5 min, the phosphorylation reaction was started by adding the ATP. The reaction was stopped after 15 sec. All compounds to be tested were present at the start of the preincubation. […] Phosphorylation of B-50 and the 50 kDa protein, which was only phosphorylated after addition of CaM, was measured in the presence of exogenous CaM (3 units/assay) and quantified.

[9] = tested on: PKC from the central nervous system; assay: Phosphorylation of synaptosomal plasma membranes: B-50 phosphorylation; type: biochemical; conditions: for phosphorylation of B-50 (% of control): without addition of CaM
Protocol: Subcellular fractionation and phosphorylation assay were performed according to Kristjansson et al., (1982). […] After a preincubation at 30°C for 5 min, the phosphorylation reaction was started by adding the ATP. The reaction was stopped after 15 sec. All compounds to be tested were present at the start of the preincubation. […]

[10] = 16 min, compound added at peak, 16 min after opsonized zymosan, read-out: Peak CL
[11] = 30 min preincubation, unstimulated, read-out: Spontaneous CL
[12] = stimulation with opsonized zymosan after preincubation, read-out: Induced CL

Row | Molecule | IC50 [1, 10] [µM] | IC50 [1, 11] [µM] | IC50 [1, 12] [µM] | LDH release [2] [µM] | Trypane blue [3] [µM] | also measured
1 | CSc1ccc2c(c1)N(CCC1CCCCN1C)c1ccccc1S2 (stereo not drawn) [Thioridazine] | 10.6 | 2.4 | 6.4 | – | – | –
2 | CN1CCN(CCCN2c3ccccc3Sc3ccc(C(F)(F)F)cc32)CC1 [Trifluoroperazine] | – | – | – | 30 | 100 | –
3 | CCCCCCCCCCCCC/C=C/[C@@H](O)[C@@H](N)CO [Sphingosine] | – | – | – | – | – | ear edema (ear thickness), compared with tiflucarbine [4]: more potent
4 | NCCCCCCNS(=O)(=O)c1cccc2c(Cl)cccc12 [W-7, N-(6-aminohexyl)-5-chloro-1-naphthalene sulfonamide] | 10 | 6.3 | 6.3 | 100 | 15 | –
5 | CN(C)CCCN1c2ccccc2Sc2ccc(Cl)cc21 [Chlorpromazine] | 21.8 | 4.9 | 7.6 | 30 | 30 | –
6 | CN[C@@H]1C[C@H]2O[C@@](C)([C@@H]1OC)n1c3ccccc3c3c4c(c5c6ccccc6n2c5c31)C(=O)NC4 [Staurosporine] | – | – | – | 10 | 3 | spontaneous CE formation [5]: marked effect; effect on morphology [6]: effects on morphology
7 | Polymyxin B | – | – | – | – | – | noradrenaline release ([7]; high (10 µM) Ca²⁺): 19.4 ± 2.38 % of total [³H]-noradrenaline; noradrenaline release ([7]; low (10 nM) Ca²⁺): 16.5 ± 1.03 % of total [³H]-noradrenaline; phosphorylation of the 50 kDa protein [8]: dose-dependently inhibited; B-50 phosphorylation ([9]; in the presence of exogenous CaM (3 units/assay)): dose-dependently inhibited; phosphorylation of B-50 (% of control) ([9]; concentration 0.1 µM): 95 ± 8 % of control; phosphorylation of B-50 (% of control) ([9]; concentration 1 µM): 103 ± 9 % of control; phosphorylation of B-50 (% of control) ([9]; concentration 10 µM): 82 ± 11 % of control; phosphorylation of B-50 (% of control) ([9]; concentration 100 µM): 18 ± 8 % of control
8 | CC(CN1c2ccccc2Sc2ccccc21)N(C)C (stereo not drawn) [Promethazine] | 62.3 | 23.6 | 31.4 | 100 | 100 | –
